Measured values from ChEMBL document CHEMBL2029248, “Fused bicycles as arylketone bioisosteres leading to potent, orally active thiadiazole H3 antagonists” (Bioorg Med Chem Lett, 2012).
The source made the active and inactive calls. The calls are words filed in the database; no cut-off is given here.

Test system: not listed separately
Assay: Drug uptake in rat brain at 10 mg/kg, po after 4 hrs
Format: ADME, organism-based
Design: dose 10 mg/kg, route oral
Conditions: read-out: Drug uptake

Structure (SMILES)	concentration at 4 h [ng/g]
O=c1ccoc2ccc(-c3nnc(N4CCC(N5CCCCC5)CC4)s3)cc12	268
O=c1ccnc2ccc(-c3nnc(N4CCC(N5CCCCC5)CC4)s3)cn12	1340
Cc1nnc2ccc(-c3nnc(N4CCC(N5CCCCC5)CC4)s3)cn12	25

Other lines, results leading:

concentration at 4 h [ng/g]	Structure (SMILES)
1290	Cc1nnc(-c2cccc(-c3nnc(N4CCC(N5CCCCC5)CC4)s3)c2)o1
110	c1cnc2c(-c3nnc(N4CCC(N5CCCCC5)CC4)s3)cccc2c1
2670	O=c1ccnc2c(-c3nnc(N4CCC(N5CCCCC5)CC4)s3)cccn12

Test system: Mus musculus
Assay: Antidiabetic activity in STZ-induced diabetic ICR mouse DIO model at 30 mg/kg, po qd for 2 days
Format: functional, organism-based
Design: dose 30 mg/kg
Conditions: not given

Structure (SMILES)	Activity
c1cnc2c(-c3nnc(N4CCC(N5CCCCC5)CC4)s3)cccc2c1	inactive
Cc1nnc(-c2cccc(-c3nnc(N4CCC(N5CCCCC5)CC4)s3)c2)o1	inactive
O=c1ccnc2c(-c3nnc(N4CCC(N5CCCCC5)CC4)s3)cccn12	inactive
O=c1ccoc2ccc(-c3nnc(N4CCC(N5CCCCC5)CC4)s3)cc12	inactive
Cc1nnc2ccc(-c3nnc(N4CCC(N5CCCCC5)CC4)s3)cn12	inactive

Molecular target: Histamine H3 receptor (Mus musculus, UniProt P58406)
Sequence (P58406 whole entry): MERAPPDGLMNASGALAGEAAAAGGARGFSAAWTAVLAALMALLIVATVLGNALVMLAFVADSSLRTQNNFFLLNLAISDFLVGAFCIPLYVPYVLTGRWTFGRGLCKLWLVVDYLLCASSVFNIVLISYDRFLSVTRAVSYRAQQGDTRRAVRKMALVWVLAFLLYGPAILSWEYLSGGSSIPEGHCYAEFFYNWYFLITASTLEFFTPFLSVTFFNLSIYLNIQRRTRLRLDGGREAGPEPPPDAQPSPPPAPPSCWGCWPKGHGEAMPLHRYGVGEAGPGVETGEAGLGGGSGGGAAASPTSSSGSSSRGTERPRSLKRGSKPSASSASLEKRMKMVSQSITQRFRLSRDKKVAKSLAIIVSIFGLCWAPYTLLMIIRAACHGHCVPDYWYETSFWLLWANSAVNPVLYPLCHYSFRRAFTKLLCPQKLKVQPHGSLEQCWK
Assay: Displacement of [3H]N-alpha-methylhistamine from mouse histamine H3 receptor
Conditions: not given

Structure (SMILES)	Ki [nM]
O=c1ccoc2ccc(-c3nnc(N4CCC(N5CCCCC5)CC4)s3)cc12	12
O=c1ccnc2ccc(-c3nnc(N4CCC(N5CCCCC5)CC4)s3)cn12	25
Cc1nnc2ccc(-c3nnc(N4CCC(N5CCCCC5)CC4)s3)cn12	2.4

The remaining lines, values ahead:

Ki [nM]	Structure (SMILES)
40	Cc1nnc(-c2cccc(-c3nnc(N4CCC(N5CCCCC5)CC4)s3)c2)o1
7.2	c1cnc2c(-c3nnc(N4CCC(N5CCCCC5)CC4)s3)cccc2c1
2.6	O=c1ccnc2c(-c3nnc(N4CCC(N5CCCCC5)CC4)s3)cccn12

Test system: not listed separately
Assay: AUC (0 to 6 hrs) in rat at 10 mg/kg, po
Format: ADME, organism-based
Design: time < 6 hr, dose 10 mg/kg, route oral
Conditions: plasma

Structure (SMILES)	AUC(0-t) at 6 h [ng·h/mL]
O=c1ccoc2ccc(-c3nnc(N4CCC(N5CCCCC5)CC4)s3)cc12	1300
Cc1cc(=O)c2cc(-c3nnc(N4CCC(N5CCCCC5)CC4)s3)ccc2o1	8000
O=c1ccnc2ccc(-c3nnc(N4CCC(N5CCCCC5)CC4)s3)cn12	7300
Cc1nnc2ccc(-c3nnc(N4CCC(N5CCCCC5)CC4)s3)cn12	1200

Now from value to molecule:

AUC(0-t) at 6 h [ng·h/mL]	Structure (SMILES)
2500	Cc1nnc(-c2cccc(-c3nnc(N4CCC(N5CCCCC5)CC4)s3)c2)o1
530	c1cnc2c(-c3nnc(N4CCC(N5CCCCC5)CC4)s3)cccc2c1
840	O=c1ccnc2c(-c3nnc(N4CCC(N5CCCCC5)CC4)s3)cccn12

Test system: Mus musculus
Assay: Ex-vivo receptor occupancy in ICR mouse cortex assessed as displacement of [3H]N-alpha-methylhistamine from histamine H3 receptor at 10 mg/kg, po after 4 hrs post dose by scintillation counting
Format: functional
Conditions: not given

Structure (SMILES)	Occ [%]
O=c1cccnn1-c1cccc(-c2nnc(N3CCC(N4CCCCC4)CC3)s2)c1	25
O=c1ccc2c(-c3nnc(N4CCC(N5CCCCC5)CC4)s3)cccc2[nH]1	6
c1cnc2c(-c3nnc(N4CCC(N5CCCCC5)CC4)s3)cccc2c1	77
O=c1ccc2cc(-c3nnc(N4CCC(N5CCCCC5)CC4)s3)ccc2[nH]1	25
c1cc(-c2nnc(N3CCC(N4CCCCC4)CC3)s2)n2nccc2c1	22
Cc1nnc(-c2cccc(-c3nnc(N4CCC(N5CCCCC5)CC4)s3)c2)o1	46
O=c1ccnc2c(-c3nnc(N4CCC(N5CCCCC5)CC4)s3)cccn12	94
O=c1ccoc2ccc(-c3nnc(N4CCC(N5CCCCC5)CC4)s3)cc12	84
O=C(c1cccc(-c2nnc(N3CCC(N4CCCCC4)CC3)s2)n1)N1CCC1	6
c1cc(-c2nnc(N3CCC(N4CCCCC4)CC3)s2)c2ccncc2c1	19
O=c1ccnc2ccc(-c3nnc(N4CCC(N5CCCCC5)CC4)s3)cn12	69
Cc1nnc2ccc(-c3nnc(N4CCC(N5CCCCC5)CC4)s3)cn12	34
O=c1ccc2ccc(-c3nnc(N4CCC(N5CCCCC5)CC4)s3)cc2[nH]1	2

Test system: Mus musculus
Assay: Ex-vivo receptor occupancy in ICR mouse cortex assessed as displacement of [3H]N-alpha-methylhistamine from histamine H3 receptor at 30 mg/kg, po after 4 hrs post dose by scintillation counting
Format: functional
Conditions: not given

Structure (SMILES)	Occ [%]
CC(=O)c1cccc(-c2nnc(N3CCC(N4CCCCC4)CC3)s2)c1	62

Molecular target: Histamine H3 receptor (Homo sapiens, UniProt Q9Y5N1)
Sequence (Q9Y5N1 whole entry): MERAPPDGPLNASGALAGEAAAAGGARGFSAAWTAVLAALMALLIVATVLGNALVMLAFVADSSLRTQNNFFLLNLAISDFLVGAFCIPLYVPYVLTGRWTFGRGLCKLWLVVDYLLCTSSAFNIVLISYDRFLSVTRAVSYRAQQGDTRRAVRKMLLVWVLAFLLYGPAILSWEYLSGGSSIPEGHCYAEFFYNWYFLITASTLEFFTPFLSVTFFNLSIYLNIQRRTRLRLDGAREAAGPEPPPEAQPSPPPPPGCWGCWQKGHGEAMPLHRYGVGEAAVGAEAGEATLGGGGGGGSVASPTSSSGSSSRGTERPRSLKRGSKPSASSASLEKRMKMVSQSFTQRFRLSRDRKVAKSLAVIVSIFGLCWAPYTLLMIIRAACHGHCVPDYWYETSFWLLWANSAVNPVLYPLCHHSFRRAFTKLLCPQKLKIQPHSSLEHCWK
Assay: Displacement of [3H]N-alpha-methylhistamine from recombinant human histamine H3 receptor expressed in HEK cell membranes after 30 mins by scintillation counting
Design: species or system HEK293
Conditions: not given

Structure (SMILES)	Ki [nM]
O=c1ccc2c(-c3nnc(N4CCC(N5CCCCC5)CC4)s3)cccc2[nH]1	20
O=c1ccc2cc(-c3nnc(N4CCC(N5CCCCC5)CC4)s3)ccc2[nH]1	10
CN(C)C(=O)c1cccc(-c2nnc(N3CCC(N4CCCCC4)CC3)s2)c1	192
CC(O)c1cccc(-c2nnc(N3CCC(N4CCCCC4)CC3)s2)c1 (centres undefined)	29
O=C(c1cccc(-c2nnc(N3CCC(N4CCCCC4)CC3)s2)c1)N1CCC1	78.9
O=c1ccoc2ccc(-c3nnc(N4CCC(N5CCCCC5)CC4)s3)cc12	12.7
O=C1Cc2cc(-c3nnc(N4CCC(N5CCCCC5)CC4)s3)ccc2N1	64.4
Cc1cc(=O)c2cc(-c3nnc(N4CCC(N5CCCCC5)CC4)s3)ccc2o1	82.8
O=c1ccnc2ccc(-c3nnc(N4CCC(N5CCCCC5)CC4)s3)cn12	13
Cc1nnc2ccc(-c3nnc(N4CCC(N5CCCCC5)CC4)s3)cn12	3.4
O=c1ccc2ccc(-c3nnc(N4CCC(N5CCCCC5)CC4)s3)cc2[nH]1	35.9

The remaining lines, values ahead:

Ki [nM]	Structure (SMILES)
24.5	Cc1nc2cc(-c3nnc(N4CCC(N5CCCCC5)CC4)s3)ccc2o1
22.8	Cc1nnc(-c2cccc(-c3nnc(N4CCC(N5CCCCC5)CC4)s3)c2)o1
22.1	O=C1COc2ccc(-c3nnc(N4CCC(N5CCCCC5)CC4)s3)cc2N1
17.8	c1cc(-c2nnc(N3CCC(N4CCCCC4)CC3)s2)c2ccncc2c1
16.5	CC(=O)Nc1cccc(-c2nnc(N3CCC(N4CCCCC4)CC3)s2)c1
12	O=c1cccnn1-c1cccc(-c2nnc(N3CCC(N4CCCCC4)CC3)s2)c1
4.6	c1cnc2c(-c3nnc(N4CCC(N5CCCCC5)CC4)s3)cccc2c1
4.4	O=C(c1cccc(-c2nnc(N3CCC(N4CCCCC4)CC3)s2)n1)N1CCC1
3.2	c1cc(-c2nnc(N3CCC(N4CCCCC4)CC3)s2)n2nccc2c1
2.1	O=c1ccnc2c(-c3nnc(N4CCC(N5CCCCC5)CC4)s3)cccn12

Test system: Mus musculus
Assay: Antiobesity activity in STZ-induced diabetic ICR mouse DIO model at 30 mg/kg, po qd for 2 days
Format: functional, organism-based
Design: dose 30 mg/kg
Conditions: not given

Structure (SMILES)	Activity
c1cnc2c(-c3nnc(N4CCC(N5CCCCC5)CC4)s3)cccc2c1	inactive
Cc1nnc(-c2cccc(-c3nnc(N4CCC(N5CCCCC5)CC4)s3)c2)o1	inactive
O=c1ccnc2c(-c3nnc(N4CCC(N5CCCCC5)CC4)s3)cccn12	inactive
O=c1ccoc2ccc(-c3nnc(N4CCC(N5CCCCC5)CC4)s3)cc12	inactive
Cc1nnc2ccc(-c3nnc(N4CCC(N5CCCCC5)CC4)s3)cn12	inactive

Test system: Mus musculus
Assay: Antiobesity activity in STZ-induced diabetic ICR mouse DIO model assessed as reduction in food intake at 30 mg/kg, po qd for 2 days relative to vehicle-treated control
Format: functional
Conditions: 48 h

Structure (SMILES)	inhibition in vivo at 30 mg/kg [%]
O=c1ccnc2ccc(-c3nnc(N4CCC(N5CCCCC5)CC4)s3)cn12	33.6
CC(=O)c1cccc(-c2nnc(N3CCC(N4CCCCC4)CC3)s2)c1	5.61

Test system: Mus musculus
Assay: Antidiabetic activity in STZ-induced diabetic ICR mouse DIO model assessed as glucose level at 30 mg/kg, po qd for 2 days
Format: functional
Conditions: not given

Structure (SMILES)	glucose change [mg/dL]	Activity [mg/mL]
O=c1ccnc2ccc(-c3nnc(N4CCC(N5CCCCC5)CC4)s3)cn12	-87	
CC(=O)c1cccc(-c2nnc(N3CCC(N4CCCCC4)CC3)s2)c1		7.08

Test system: Mus musculus
Assay: Antiobesity activity in STZ-induced diabetic ICR mouse DIO model assessed as change in body weight at 30 mg/kg, po qd for 2 days relative to vehicle-treated control
Format: functional
Conditions: not given

Structure (SMILES)	Activity [%]
O=c1ccnc2ccc(-c3nnc(N4CCC(N5CCCCC5)CC4)s3)cn12	-3.02
CC(=O)c1cccc(-c2nnc(N3CCC(N4CCCCC4)CC3)s2)c1	-1.01

Molecular target: T1, Cytochrome P450 3A4 (Homo sapiens, UniProt P08684)
T1 sequence (P08684 whole entry): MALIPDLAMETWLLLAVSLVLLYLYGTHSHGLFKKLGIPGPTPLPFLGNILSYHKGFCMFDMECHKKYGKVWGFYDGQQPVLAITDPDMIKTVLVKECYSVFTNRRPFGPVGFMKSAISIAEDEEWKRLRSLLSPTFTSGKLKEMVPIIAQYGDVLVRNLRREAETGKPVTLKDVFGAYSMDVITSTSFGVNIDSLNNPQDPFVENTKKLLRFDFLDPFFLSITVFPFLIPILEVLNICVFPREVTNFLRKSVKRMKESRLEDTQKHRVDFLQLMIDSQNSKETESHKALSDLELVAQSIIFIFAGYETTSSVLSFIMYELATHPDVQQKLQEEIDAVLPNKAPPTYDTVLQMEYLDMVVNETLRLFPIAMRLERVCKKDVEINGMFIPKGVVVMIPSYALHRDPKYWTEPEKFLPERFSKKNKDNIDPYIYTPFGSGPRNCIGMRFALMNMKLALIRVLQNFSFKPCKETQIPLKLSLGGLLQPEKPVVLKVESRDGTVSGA
Assay: Inhibition of CYP3A4 preincubated with compound
Format: ADME
Conditions: not given

INH [µM]	Structure (SMILES)
> 20	O=c1ccnc2ccc(-c3nnc(N4CCC(N5CCCCC5)CC4)s3)cn12
> 20	CC(=O)c1cccc(-c2nnc(N3CCC(N4CCCCC4)CC3)s2)c1

Molecular target: T2, Cytochrome P450 2D6 (Homo sapiens, UniProt P10635)
T2 sequence (P10635 whole entry): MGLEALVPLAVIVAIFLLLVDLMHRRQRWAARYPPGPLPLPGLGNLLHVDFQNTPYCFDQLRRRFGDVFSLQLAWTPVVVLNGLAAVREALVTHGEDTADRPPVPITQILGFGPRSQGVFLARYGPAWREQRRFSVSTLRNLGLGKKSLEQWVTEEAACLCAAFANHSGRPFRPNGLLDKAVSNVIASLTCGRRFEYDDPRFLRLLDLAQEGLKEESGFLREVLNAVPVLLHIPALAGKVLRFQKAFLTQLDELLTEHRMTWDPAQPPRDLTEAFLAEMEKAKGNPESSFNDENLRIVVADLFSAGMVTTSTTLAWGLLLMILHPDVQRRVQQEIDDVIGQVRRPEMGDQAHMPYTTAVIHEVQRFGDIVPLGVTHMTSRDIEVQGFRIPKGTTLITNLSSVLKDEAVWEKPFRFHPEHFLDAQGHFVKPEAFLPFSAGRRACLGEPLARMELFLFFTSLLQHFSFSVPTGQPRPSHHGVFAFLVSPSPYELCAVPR
Assay: Inhibition of CYP2D6 preincubated with compound
Format: ADME
Conditions: not given

INH [µM]	Structure (SMILES)
> 20	O=c1ccnc2ccc(-c3nnc(N4CCC(N5CCCCC5)CC4)s3)cn12
> 20	CC(=O)c1cccc(-c2nnc(N3CCC(N4CCCCC4)CC3)s2)c1

Molecular target: T3, Cytochrome P450 2C9 (Homo sapiens, UniProt P11712)
T3 sequence (P11712 whole entry): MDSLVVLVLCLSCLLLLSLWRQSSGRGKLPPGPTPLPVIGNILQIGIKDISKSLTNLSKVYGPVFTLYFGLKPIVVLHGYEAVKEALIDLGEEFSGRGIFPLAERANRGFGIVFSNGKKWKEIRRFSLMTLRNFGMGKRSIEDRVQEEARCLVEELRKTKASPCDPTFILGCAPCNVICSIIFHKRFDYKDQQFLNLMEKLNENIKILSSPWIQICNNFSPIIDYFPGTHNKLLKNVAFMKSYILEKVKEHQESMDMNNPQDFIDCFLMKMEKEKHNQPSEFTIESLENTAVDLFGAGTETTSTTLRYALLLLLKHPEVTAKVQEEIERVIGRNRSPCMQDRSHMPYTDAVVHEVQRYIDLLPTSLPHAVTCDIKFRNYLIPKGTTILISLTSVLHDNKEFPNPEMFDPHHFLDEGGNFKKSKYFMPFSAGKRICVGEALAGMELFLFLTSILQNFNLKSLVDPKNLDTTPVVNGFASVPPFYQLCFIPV
Assay: Inhibition of CYP2C9 preincubated with compound
Format: ADME
Conditions: read-out: INH

IC50 [nM]	Structure (SMILES)
> 20000	O=c1ccnc2ccc(-c3nnc(N4CCC(N5CCCCC5)CC4)s3)cn12
> 20000	CC(=O)c1cccc(-c2nnc(N3CCC(N4CCCCC4)CC3)s2)c1

Molecular target: hERG (Homo sapiens, UniProt Q12809)
Sequence (Q12809 whole entry): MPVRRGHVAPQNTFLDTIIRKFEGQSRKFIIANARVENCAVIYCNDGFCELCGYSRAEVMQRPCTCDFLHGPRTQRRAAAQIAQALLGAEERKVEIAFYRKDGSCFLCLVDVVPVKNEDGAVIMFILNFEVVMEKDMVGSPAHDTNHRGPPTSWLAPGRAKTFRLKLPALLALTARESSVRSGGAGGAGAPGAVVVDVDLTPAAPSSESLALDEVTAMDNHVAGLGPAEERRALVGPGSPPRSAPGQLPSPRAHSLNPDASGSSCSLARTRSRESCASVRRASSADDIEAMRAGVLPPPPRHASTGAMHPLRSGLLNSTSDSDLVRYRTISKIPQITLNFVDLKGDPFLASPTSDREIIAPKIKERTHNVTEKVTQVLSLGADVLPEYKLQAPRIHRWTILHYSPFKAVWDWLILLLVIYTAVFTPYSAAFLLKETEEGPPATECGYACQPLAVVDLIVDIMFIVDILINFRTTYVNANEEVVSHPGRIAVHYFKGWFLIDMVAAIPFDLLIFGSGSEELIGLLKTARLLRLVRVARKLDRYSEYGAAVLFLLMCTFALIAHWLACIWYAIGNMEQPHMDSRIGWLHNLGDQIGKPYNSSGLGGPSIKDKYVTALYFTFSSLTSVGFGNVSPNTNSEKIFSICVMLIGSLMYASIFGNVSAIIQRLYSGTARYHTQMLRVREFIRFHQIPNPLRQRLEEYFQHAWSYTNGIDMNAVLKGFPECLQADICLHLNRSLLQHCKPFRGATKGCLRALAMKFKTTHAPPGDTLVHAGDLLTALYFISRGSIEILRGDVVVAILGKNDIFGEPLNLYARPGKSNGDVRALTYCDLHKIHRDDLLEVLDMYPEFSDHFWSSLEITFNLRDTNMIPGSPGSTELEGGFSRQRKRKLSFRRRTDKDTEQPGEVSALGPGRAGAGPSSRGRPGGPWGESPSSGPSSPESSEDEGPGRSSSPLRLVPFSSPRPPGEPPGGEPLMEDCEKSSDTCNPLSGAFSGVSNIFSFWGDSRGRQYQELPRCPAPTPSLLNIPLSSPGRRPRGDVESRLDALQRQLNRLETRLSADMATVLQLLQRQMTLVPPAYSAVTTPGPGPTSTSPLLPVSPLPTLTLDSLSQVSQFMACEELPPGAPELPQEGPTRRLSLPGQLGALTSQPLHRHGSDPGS
Assay: Inhibition of human ERG at 10 uM
Conditions: not given

Structure (SMILES)	inhibition at 10 µM [%]
O=c1ccnc2ccc(-c3nnc(N4CCC(N5CCCCC5)CC4)s3)cn12	7
CC(=O)c1cccc(-c2nnc(N3CCC(N4CCCCC4)CC3)s2)c1	40

Molecular target: T1, Cytochrome P450 3A4
Assay: Inhibition of CYP3A4 co-incubated with compound
Format: ADME
Conditions: not given

INH [µM]	Structure (SMILES)
> 20	O=c1ccnc2ccc(-c3nnc(N4CCC(N5CCCCC5)CC4)s3)cn12
> 20	CC(=O)c1cccc(-c2nnc(N3CCC(N4CCCCC4)CC3)s2)c1

Molecular target: T2, Cytochrome P450 2D6
Assay: Inhibition of CYP2D6 co-incubated with compound
Format: ADME
Conditions: not given

INH [µM]	Structure (SMILES)
> 20	O=c1ccnc2ccc(-c3nnc(N4CCC(N5CCCCC5)CC4)s3)cn12
> 20	CC(=O)c1cccc(-c2nnc(N3CCC(N4CCCCC4)CC3)s2)c1

Molecular target: T3, Cytochrome P450 2C9
Assay: Inhibition of CYP2C9 co-incubated with compound
Format: ADME
Conditions: not given

INH [µM]	Structure (SMILES)
> 20	O=c1ccnc2ccc(-c3nnc(N4CCC(N5CCCCC5)CC4)s3)cn12
> 20	CC(=O)c1cccc(-c2nnc(N3CCC(N4CCCCC4)CC3)s2)c1
